Columns and labels:
[1] = molecular target: T1, human D3 receptors (Homo sapiens, UniProt P35462); experiment: Inhibition of [^3 H]spiperone binding to human D3 receptors
T1 construct: expressed in transfected cells
Protocol: (§1) Dopamine D2 antagonists are established as antipsychotic agents. More recently, the dopamine D3 receptor has been identified. On the basis of the localization of the dopamine D3 receptor in the limbic area of the brain, a selective D3 antagonist should show antipsychotic activity but not have the neurological side effects of D2 antagonists. […] Thus, the compounds of Formula I were tested for their ability to bind to dopamine receptors as measured by their inhibition of [^3 H]spiperone binding to the human D2 and D3 receptors in a receptor assay described by MacKenzie R. G., et al., Characterization of the human D3 dopamine receptor expressed in transfected cell lines, Eur. J. Pharmacol., 266:79 (1994); and for their ability to inhibit locomotor activity in mice and rats, a measure of antipsychotic activity, according to the assay described by McLean J. R., et al., Pharmacology, Biochemistry and Behavior, 8:97- 99 (1978). The above test methods are incorporated herein by reference.

[2] = tested on: rats; experiment: Inhibition of locomotor activity in rats; type: in vivo; conditions: Rattus norvegicus, IP
From the text: The compounds of Formula I are valuable dopaminergic agents. Dopamine D2 antagonists are established as antipsychotic agents. More recently, the dopamine D3 receptor has been identified. On the basis of the localization of the dopamine D3 receptor in the limbic area of the brain, a selective D3 antagonist should show antipsychotic activity but not have the neurological side effects of D2 antagonists. The tests employed indicate that compounds of Formula I bind selectively to the dopamine D3 receptor. Thus, the compounds of Formula I were tested for their ability to bind to dopamine receptors as measured by their inhibition of [^3 H]spiperone binding to the human D2 and D3 receptors in a receptor assay described by MacKenzie R. G., et al., Characterization of the human D3 dopamine receptor expressed in transfected cell lines, Eur. J. Pharmacol., 266:79 (1994); and for their ability to inhibit locomotor activity in mice and rats, a measure of antipsychotic activity, according to the assay described by McLean J. R., et al., Pharmacology, Biochemistry and Behavior, 8:97- 99 (1978). The above test methods are incorporated herein by reference.

[3] = molecular target: T2, human D2 receptors (Homo sapiens, UniProt P14416); experiment: Inhibition of [^3 H]spiperone binding to human D2 receptors
T2 construct: expressed in transfected cells
T2 sequence (P14416 whole entry): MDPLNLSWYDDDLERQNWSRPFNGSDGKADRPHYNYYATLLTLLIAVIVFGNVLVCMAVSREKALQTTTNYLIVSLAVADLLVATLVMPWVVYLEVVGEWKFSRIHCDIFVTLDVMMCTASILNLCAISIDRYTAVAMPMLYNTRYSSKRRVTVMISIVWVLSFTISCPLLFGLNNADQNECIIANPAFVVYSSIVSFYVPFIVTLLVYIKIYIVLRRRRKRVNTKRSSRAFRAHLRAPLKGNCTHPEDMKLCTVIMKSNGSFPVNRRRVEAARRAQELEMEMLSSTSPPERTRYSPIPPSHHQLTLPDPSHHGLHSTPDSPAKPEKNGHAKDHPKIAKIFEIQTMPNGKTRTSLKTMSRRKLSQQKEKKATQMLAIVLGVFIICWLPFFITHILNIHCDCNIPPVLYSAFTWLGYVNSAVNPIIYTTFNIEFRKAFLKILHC
Protocol: as §1

T1 sequence (P35462 whole entry): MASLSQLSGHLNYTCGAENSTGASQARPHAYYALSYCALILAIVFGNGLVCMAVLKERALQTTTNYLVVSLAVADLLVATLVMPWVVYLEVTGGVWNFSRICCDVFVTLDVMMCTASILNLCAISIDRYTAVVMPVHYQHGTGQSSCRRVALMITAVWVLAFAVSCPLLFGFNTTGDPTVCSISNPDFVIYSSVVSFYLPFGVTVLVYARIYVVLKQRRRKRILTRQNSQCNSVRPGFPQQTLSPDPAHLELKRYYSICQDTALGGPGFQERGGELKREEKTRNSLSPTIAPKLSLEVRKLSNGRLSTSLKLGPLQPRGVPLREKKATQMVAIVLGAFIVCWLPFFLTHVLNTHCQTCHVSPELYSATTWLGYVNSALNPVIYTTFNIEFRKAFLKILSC

Row | IC50 [1] [nM] | IC50 [3] [nM] | Compound | ED50 [2] [mg/kg]
1 | 9 |  | C(=C\Cn1c(-c2ccc(OCCCN3CCCCC3)cc2)nc2ccccc21)/Cn1c(-c2ccc(OCCCN3CCCCC3)cc2)nc2ccccc21 [Example 6] | 
2 | 36 | 1070 | CCN(CC)CCCOc1ccc(-c2nc3ccccc3n2CCCCn2c(-c3ccc(OCCCN(CC)CC)cc3)nc3ccccc32)cc1 [Example 12, (3-{4-[1-(4-{2-[4-(3-Diethylaminopropoxy)phenyl]benzoimidazol-1-yl}butyl)-1H-benzoimidazol-2-yl]phenoxy}propyl)diethylamine] | 2.8
3 | 16 |  | CCN(CC)CCCOc1ccc(-c2nc3ccccc3n2C/C=C/Cn2c(-c3ccc(OCCCN(CC)CC)cc3)nc3ccccc32)cc1 [Example 10, E-(3-{4-[1-(4-{2-[4-(3-Diethylaminopropoxy)phenyl]benzoimidazol-1-yl}but-2-enyl)-1H-benzoimidazol-2-yl]phenoxy}propyl)diethylamine] | 3.9
4 | 5 |  | CCCN(CCC)CCCOc1ccc(-c2nc3ccccc3n2C/C=C/Cn2c(-c3ccc(OCCCN(CCC)CCC)cc3)nc3ccccc32)cc1 [Example 2, E-(3-{4-[1-(4-{2-[4-(3-Dipropylaminopropoxy)phenyl]benzoimidazol-1-yl}but-2-enyl)-1H-benzoimidazol-2-yl]phenoxy}propyl)dipropylamine] | 
5 | 110 | 3070 | CCN(CC)CCNC(=O)c1ccc(-c2nc3ccccc3n2CCCCn2c(-c3ccc(C(=O)NCCN(CC)CC)cc3)nc3ccccc32)cc1 [Example 17] | 
6 |  | 6430 | CCN(CC)CCCOc1ccc(-c2nc3ccccc3n2C/C=C/Cn2c(-c3ccccc3)nc3ccccc32)cc1 [Example 13, Diethyl-[3-(4-{1-[4-(2-phenylbenzoimidazol-1-yl)but-2-enyl]-1H-benzoimidazol-2-yl}phenoxy)propyl]amine] | 
7 | 16 | 2450 | CCN(CC)CCCOc1cccc(-c2nc3ccccc3n2C/C=C/Cn2c(-c3cccc(OCCCN(CC)CC)c3)nc3ccccc32)c1 [Example 7, E-(3-{3-[1-(4-{2-[3-(3-Diethylaminopropoxy)phenyl]benzoimidazol-1-yl}but-2-enyl)-1H-benzoimidazol-2-yl]phenoxy}propyl)diethylamine] | 
8 | 143 |  | CN(C)CCCOc1ccc(-c2nc3ccccc3n2C/C=C/Cn2c(-c3ccc(OCCCN(C)C)cc3)nc3ccccc32)cc1 [Example 5, E-(3-{4-[1-(4-{2-[4-(3-Dimethylaminopropoxy)phenyl]benzoimidazol-1-yl}but-2-enyl)-1H-benzoimidazol-2-yl]phenoxy}propyl)dimethylamine] | 
9 | 6 | 200 | CC(C)N(C)CCCOc1ccc(-c2nc3ccccc3n2C/C=C/Cn2c(-c3ccc(OCCCN(C)C(C)C)cc3)nc3ccccc32)cc1 [Example 9, E-Isopropyl-[3-(4-{1-[4-(2-{4-[3-(isopropylmethylamino)propoxy]phenyl}benzoimidazol-1-yl)but-2-enyl]-1H-benzoimidazol-2-yl}phenoxy)propyl]methylamine] | 
10 | 9 |  | C(=C\Cn1c(-c2ccc(OCCCN3CCCC3)cc2)nc2ccccc21)/Cn1c(-c2ccc(OCCCN3CCCC3)cc2)nc2ccccc21 [Example 1] | 
11 | 16 | 2740 | CCCN(CCC)CCCOc1ccc(-c2nc3ccccc3n2CCCCn2c(-c3ccc(OCCCN(CCC)CCC)cc3)nc3ccccc32)cc1 [Example 11, (3-{4-[1-(4-{2-[4-(3-Dipropylaminopropoxy)phenyl]benzoimidazol-1-yl}butyl)-1H-benzoimidazol-2-yl]phenoxy}propyl)dipropylamine] | 
12 |  | 427 | CCCCN(CCCC)CCCOc1ccc(-c2nc3ccccc3n2C/C=C/Cn2c(-c3ccc(OCCCN(CCCC)CCCC)cc3)nc3ccccc32)cc1 [Example 8, E-Dibutyl-(3-{4-[1-(4-{2-[4-(3-dibutylaminopropoxy)phenyl]benzoimidazol-1-yl}-but-2-enyl)-1H-benzoimidazol-2-yl]phenoxy}propyl)amine] | 
13 | 85 | 1430 | CCN1CCCC1CNC(=O)c1ccc(-c2nc3ccccc3n2CCCCn2c(-c3ccc(C(=O)NCC4CCCN4CC)cc3)nc3ccccc32)cc1 (centres unmarked) [Example 16] | 

Row | Compound | IC50 [1] [nM] | IC50 [3] [nM] | ED50 [2] [mg/kg]
14 | NCCCOc1ccc(-c2nc3ccccc3n2C/C=C/Cn2c(-c3ccc(OCCCN4CCN(c5ccccc5)CC4)cc3)nc3ccccc32)cc1 [Example 15] | 19 | 803 | 

Reference: US5414010A, “Dimeric benzimidazoles as central nervous system agents” (Warner-Lambert Company, priority 1994, dated 1995)
